A value given as a limit tells only on which side of the number the result lay.

The target in the experiment is SphK1 (Homo sapiens, UniProt Q9NYA1). Nature of the experiment: SphK1 384-well flashplate kinase assay. As to conditions: enzyme assay. It is filed as biochemical. The method, then:
The kinase assay is carried out as a 384-well flashplate assay.
5 nM modified SphK1, 800 nM omega-biotinyl-D-erythro-sphingosine and 1 μM ATP (with 0.3 μCi of ^33P-ATP/well) are incubated in a total volume of 50 μl (25 mM HEPES, 5 mM MgCl2, 1 mM dithiothreitol, 0.01% of Brij35, 0.1% of BSA (fatty acid-free), pH 7.4) without or with test substance (5-10 concentrations) at 30° C. for 120 min. The reaction is terminated using 25 μl of 200 mM EDTA solution, filtered off with suction at room temperature after 30 min, and the cavities are washed 3 times with 100 μl of 0.9% NaCl solution. The non-specific proportion of the kinase reaction (blank) is determined using 0.5 mM NaCl. Radioactivity is measured in topcount. IC50 values are calculated using RS1.

SphK1, sequence (Q9NYA1 whole entry): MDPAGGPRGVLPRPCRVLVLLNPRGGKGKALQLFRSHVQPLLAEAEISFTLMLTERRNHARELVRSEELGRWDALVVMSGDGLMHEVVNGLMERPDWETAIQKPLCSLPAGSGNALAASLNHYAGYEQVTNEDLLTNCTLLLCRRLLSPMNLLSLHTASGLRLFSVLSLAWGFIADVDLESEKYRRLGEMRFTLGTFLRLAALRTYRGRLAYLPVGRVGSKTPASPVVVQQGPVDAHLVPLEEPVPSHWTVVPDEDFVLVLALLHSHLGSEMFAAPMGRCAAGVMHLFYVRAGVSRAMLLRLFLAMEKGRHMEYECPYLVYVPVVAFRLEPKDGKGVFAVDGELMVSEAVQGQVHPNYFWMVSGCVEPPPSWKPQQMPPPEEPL

The term IC50 denotes the concentration at which inhibition is half-maximal. Lower therefore signals greater potency. `CC(CN1CCOCC1)CN1CCC(c2nc(-c3ccc4c(c3)C(C)(C)CCC4(C)C)cs2)CC1` (stereo not drawn) [Compound A1, 4-(2-methyl-3-{4-[4-(5,5,8,8-tetramethyl-5,6,7,8-tetrahydronaphthalen-2-yl)thiazol-2-yl]piperidin-1-yl}propyl)morpholine] gave an IC50 above 10000 nM.

For `CCN1CCCC(N2CCC(c3nc(-c4ccc5c(c4)C(C)(C)CCC5(C)C)cs3)CC2)C1` (stereo not drawn) [Compound A2, 1′-ethyl-4-[4-(5,5,8,8-tetramethyl-5,6,7,8-tetrahydronaphthalen-2-yl)thiazol-2-yl]-[1,3]bipiperidinyl], the IC50 is 1000 to 10000 nM.

As to `NC(=O)CN1CCC(c2nc(-c3ccc4c(c3)CCCC4)cs2)CC1` [Compound A3], the IC50 was above 10000 nM.

`CN(C)CCN1CCC(c2nc(-c3ccc4c(c3)C(C)(C)CCC4(C)C)cs2)CC1` [Compound A4] came in with an IC50 of 1000 to 10000 nM.

Compound `CN1CCCC1CCN1CCC(c2nc(-c3ccc4c(c3)C(C)(C)CCC4(C)C)cs2)CC1` (stereo not drawn) [Compound A5] registered an IC50 of 1000 to 10000 nM.

In the case of `CN(C)CCN1CCC(c2nc(-c3ccc4c(c3)CCCC4)cs2)CC1` [Compound A6], the IC50 was above 10000 nM.

Take `CN1CCCC1CCN1CCC(c2nc(-c3ccc4c(c3)CCCC4)cs2)CC1` (stereo not drawn) [Compound A7]: the IC50 was above 10000 nM.

Compound `CC1(C)CCC(C)(C)c2cc(-c3csc(C4CCN(CC(N)=O)CC4)n3)ccc21` [Compound A8] gave an IC50 of 1000 to 10000 nM.

As to `CC1(C)CCC(C)(C)c2cc(-c3csc(C4CCN(CCO)CC4)n3)ccc21` [Compound A9], the IC50 lay within 10 to 1000 nM.

Regarding `OCCN1CCC(c2nc(-c3ccc4c(c3)CCCC4)cs2)CC1` [Compound A11], the IC50 lay in the range of 1000 to 10000 nM.

On to `CC1(C)CCC(C)(C)c2cc(-c3csc(C4CCN(C[C@@H](O)CO)CC4)n3)ccc21` [Compound A12], for which the concentration for half-maximal inhibition (IC50) fell in the range of 1000 to 10000 nM.

For the compound `OCCCN1CCC(c2nc(-c3ccc4c(c3)CCCC4)cs2)CC1` [Compound A13], the IC50 was in the range of 1000 to 10000 nM.

On to `OC[C@@H](O)CN1CCC(c2nc(-c3ccc4c(c3)CCCC4)cs2)CC1` [Compound A14], for which the IC50 is 1000 to 10000 nM.

In turn, `OC[C@H](O)CN1CCC(c2nc(-c3ccc4c(c3)CCCC4)cs2)CC1` [Compound A15] showed an IC50 of 1000 to 10000 nM.

Compound `CC1(C)CCC(C)(C)c2cc(-c3csc(C4CCN(CCCO)CC4)n3)ccc21` [Compound A16] showed an IC50 of 1000 to 10000 nM.

`COCC(O)CN1CCC(c2nc(-c3ccc4c(c3)C(C)(C)CCC4(C)C)cs2)CC1` (stereo not drawn) [Compound A17] came in with an IC50 of 10 to 1000 nM.

Compound `CCN(CC)C(=O)CN1CCC(c2nc(-c3ccc4c(c3)C(C)(C)CCC4(C)C)cs2)CC1` [Compound A18] showed an IC50 of 1000 to 10000 nM.

For the compound `CC1(C)CCC(C)(C)c2cc(-c3csc(C4CCN(CCN5CCCCC5)CC4)n3)ccc21` [Compound A19], the half-maximal inhibitory concentration (IC50) lay in the range of 1000 to 10000 nM.

Regarding `CC(C)NCC(O)CN1CCC(c2nc(-c3ccc4c(c3)C(C)(C)CCC4(C)C)cs2)CC1` (stereo not drawn) [Compound A20], the IC50 lay within 10 to 1000 nM.

As to `CC1(C)CCC(C)(C)c2cc(-c3csc(C4CCN(CCN5CCCC5)CC4)n3)ccc21` [Compound A21], the half-inhibitory concentration (IC50) was in the range of 1000 to 10000 nM.

For `CC1(C)CCC(C)(C)c2cc(-c3csc(C4CCN(C[C@H](O)CO)CC4)n3)ccc21` [Compound A22], the half-maximal inhibitory concentration (IC50) fell in the range of 10 to 1000 nM.

`CN1CCCCC1CCN1CCC(c2nc(-c3ccc4c(c3)C(C)(C)CCC4(C)C)cs2)CC1` (stereo not drawn) [Compound A23] showed an IC50 of 1000 to 10000 nM.

On to `CC1(C)CCC(C)(C)c2cc(-c3csc(C4CCN(CCn5c(=O)[nH]c6ccccc6c5=O)CC4)n3)ccc21` [Compound A24], for which the IC50 lay in the range of 1000 to 10000 nM.

As to `CC1(C)CCC(C)(C)c2cc(-c3csc(C4CCN(CCN5CCOCC5)CC4)n3)ccc21` [Compound A25], the IC50 lay in the range of 1000 to 10000 nM.

`CCN(CC)CCN1CCC(c2nc(-c3ccc4c(c3)C(C)(C)CCC4(C)C)cs2)CC1` [Compound A26] showed an IC50 of 1000 to 10000 nM.

Compound `CC1(C)CCC(C)(C)c2cc(-c3csc(C4CCN(CC5CNC(=O)O5)CC4)n3)ccc21` (stereo not drawn) [Compound A27] showed an IC50 of 1000 to 10000 nM.

Turning to `CC1(C)CCC(C)(C)c2cc(-c3csc(C4CCN(CCCN5CCCCC5)CC4)n3)ccc21` [Compound A28], the half-inhibitory concentration (IC50) is 10 to 1000 nM.

On to `CC(CN(C)C)N1CCC(c2nc(-c3ccc4c(c3)C(C)(C)CCC4(C)C)cs2)CC1` (stereo not drawn) [Compound A29], for which the IC50 lay in the range of 1000 to 10000 nM.

Turning to `CC1(C)CCC(C)(C)c2cc(-c3csc(C4CCN(CCCCN5CCOCC5)CC4)n3)ccc21` [Compound A30], the IC50 fell in the range of 10 to 1000 nM.

`CC1(C)CCC(C)(C)c2cc(-c3csc(C4CCN(CC(=O)N5CCOCC5)CC4)n3)ccc21` [Compound A31]: the IC50 lay within 1000 to 10000 nM.

Compound `COCCN1CCC(c2nc(-c3ccc4c(c3)C(C)(C)CCC4(C)C)cs2)CC1` [Compound A32] displayed an IC50 of 10 to 1000 nM.

In turn, `CN1CCC(c2nc(-c3ccc4c(c3)C(C)(C)CCC4(C)C)cs2)CC1` [Compound A33] had an IC50 of 10 to 1000 nM.

`CCN1CCC(c2nc(-c3ccc4c(c3)C(C)(C)CCC4(C)C)cs2)CC1` [Compound A34] had an IC50 of 10 to 1000 nM.

`COc1ccccc1N1CCN(CCN2CCC(c3nc(-c4ccc5c(c4)C(C)(C)CCC5(C)C)cs3)CC2)CC1` [Compound A35] yielded an IC50 above 10000 nM.

With `CCN(CC)CCCN1CCC(c2nc(-c3ccc4c(c3)C(C)(C)CCC4(C)C)cs2)CC1` [Compound A36], the IC50 was 1000 to 10000 nM.

`CC(CO)N1CCC(c2nc(-c3ccc4c(c3)C(C)(C)CCC4(C)C)cs2)CC1` (stereo not drawn) [Compound A38]: the IC50 lay in the range of 10 to 1000 nM.

In turn, `CC(CCO)N1CCC(c2nc(-c3ccc4c(c3)C(C)(C)CCC4(C)C)cs2)CC1` (stereo not drawn) [Compound A40] showed an IC50 of 10 to 1000 nM.

As for `CN(C)CCCNC(=O)N1CCC(c2nc(-c3ccc4c(c3)C(C)(C)CCC4(C)C)cs2)CC1` [Compound A42], the IC50 lay within 1000 to 10000 nM.

For the compound `CC1(C)CCC(C)(C)c2cc(-c3csc(C4CCN(C(=O)NCCc5ccccn5)CC4)n3)ccc21` [Compound A43], the IC50 was in the range of 1000 to 10000 nM.

`CC1(C)CCC(C)(C)c2cc(-c3csc(C4CCN(C(=O)NCC(N)=O)CC4)n3)ccc21` [Compound A44] yielded an IC50 above 10000 nM.

As for `CCN(CC)CCNC(=O)N1CCC(c2nc(-c3ccc4c(c3)C(C)(C)CCC4(C)C)cs2)CC1` [Compound A45], the IC50 was above 10000 nM.

Consider `COCCCOC(=O)N1CCC(c2nc(-c3ccc4c(c3)C(C)(C)CCC4(C)C)cs2)CC1` [Compound A46, 3-methoxypropyl 4-[4-(5,5,8,8-tetramethyl-5,6,7,8-tetrahydronaphthalen-2-yl)thiazol-2-yl]piperidine-1-carboxylate], for which the IC50 lay in the range of 1000 to 10000 nM.

The compound `CN(C)CCOCCOC(=O)N1CCC(c2nc(-c3ccc4c(c3)C(C)(C)CCC4(C)C)cs2)CC1` [Compound A47] registered an IC50 of 1000 to 10000 nM.

For `CC1(C)CCC(C)(C)c2cc(-c3csc(C4CCN(C(=O)OCCN5CCCC5)CC4)n3)ccc21` [Compound A49], the IC50 was above 10000 nM.

In the case of `CN1CCCC(COC(=O)N2CCC(c3nc(-c4ccc5c(c4)C(C)(C)CCC5(C)C)cs3)CC2)C1` (stereo not drawn) [Compound A50], the IC50 is above 10000 nM.

Consider `CC1(C)CCC(C)(C)c2cc(-c3csc(C4CCN(C(=O)Cc5ccncc5)CC4)n3)ccc21` [Compound A51, 2-pyridin-4-yl-1-{4-[4-(5,5,8,8-tetramethyl-5,6,7,8-tetrahydronaphthalen-2-yl)thiazol-2-yl]piperidin-1-yl}ethanone], for which the IC50 was 1000 to 10000 nM.

`CC1(C)CCC(C)(C)c2cc(-c3csc(C4CCN(C(=O)c5ccncc5)CC4)n3)ccc21` [Compound A52] yielded a half-maximal inhibitory concentration (IC50) of 1000 to 10000 nM.

`CN(C)CC(=O)N1CCC(c2nc(-c3ccc4c(c3)C(C)(C)CCC4(C)C)cs2)CC1` [Compound A55] showed an IC50 above 10000 nM.

The compound `CC(CO)(CO)C(=O)N1CCC(c2nc(-c3ccc4c(c3)C(C)(C)CCC4(C)C)cs2)CC1` [Compound A57] came in with a half-inhibitory concentration (IC50) of 1000 to 10000 nM.

In the case of `CC1(C)CCC(C)(C)c2cc(-c3csc(C4CCN(C(=O)[C@@H](N)Cc5cnc[nH]5)CC4)n3)ccc21` [Compound A63, (S)-2-amino-3-(3H-imidazol-4-yl)-1-{4-[4-(5,5,8,8-tetramethyl-5,6,7,8-tetrahydronaphthalen-2-yl)thiazol-2-yl]piperidin-1-yl}-propan-1-one], the IC50 fell in the range of 1000 to 10000 nM.

As to `CC1(C)CCC(C)(C)c2cc(-c3csc(C4CCN(C(=O)[C@@H](N)CO)CC4)n3)ccc21` [Compound A64], the IC50 lay within 1000 to 10000 nM.

With `CC1(C)CCC(C)(C)c2cc(-c3csc(C4CCN(C(=O)C5CNCCO5)CC4)n3)ccc21` (stereo not drawn) [Compound A65], the 50% inhibitory concentration (IC50) fell in the range of 10 to 1000 nM.

`CC1(C)CCC(C)(C)c2cc(-c3csc(C4CCN(C(=O)[C@H](N)CCCCO)CC4)n3)ccc21` [Compound A66] yielded an IC50 of 10 to 1000 nM.

For `CC1(C)CCC(C)(C)c2cc(-c3csc(C4CCN(C(=O)CCN5CCNCC5)CC4)n3)ccc21` [Compound A67], the IC50 is above 10000 nM.

`CC1(C)CCC(C)(C)c2cc(-c3csc(C4CCN(C(=O)[C@H]5C[C@H](O)CN5)CC4)n3)ccc21` [Compound A68] had an IC50 of 1000 to 10000 nM.

`CC1(C)CCC(C)(C)c2cc(-c3csc(C4CCN(C(=O)[C@@H](N)CC(N)=O)CC4)n3)ccc21` [Compound A69] yielded an IC50 of 1000 to 10000 nM.

Compound `CC1(C)CCC(C)(C)c2cc(-c3csc(C4CCN(C(=O)[C@H](N)CO)CC4)n3)ccc21` [Compound A70] registered an IC50 of 1000 to 10000 nM.

With `Cn1cnc(CN2CCC(c3nc(-c4ccc5c(c4)C(C)(C)CCC5(C)C)cs3)CC2)c1` [Compound A71], the IC50 fell in the range of 1000 to 10000 nM.

`Cc1[nH]cnc1CN1CCC(c2nc(-c3ccc4c(c3)C(C)(C)CCC4(C)C)cs2)CC1` [Compound A72] displayed an IC50 of 10 to 1000 nM.

`Cn1ccnc1CN1CCC(c2nc(-c3ccc4c(c3)C(C)(C)CCC4(C)C)cs2)CC1` [Compound A73] registered an IC50 of 10 to 1000 nM.

Source of the values: patent publication US8436186B2, “Thiazolyl piperidine derivatives” (Merck Patent Gesellschaft mit beschrankter Haftung, priority 2008, dated 2013).
